We go through three compounds from ChEMBL document CHEMBL2029272, “7-Azabicyclo[2.2.1]heptane as a scaffold for the development of selective sigma-2 (σ2) receptor ligands” (Bioorg Med Chem Lett, 2012).

The target of experiment [1] is T1, Alpha-2A adrenergic receptor (Homo sapiens) (UniProt P08913).
T1 sequence (whole entry): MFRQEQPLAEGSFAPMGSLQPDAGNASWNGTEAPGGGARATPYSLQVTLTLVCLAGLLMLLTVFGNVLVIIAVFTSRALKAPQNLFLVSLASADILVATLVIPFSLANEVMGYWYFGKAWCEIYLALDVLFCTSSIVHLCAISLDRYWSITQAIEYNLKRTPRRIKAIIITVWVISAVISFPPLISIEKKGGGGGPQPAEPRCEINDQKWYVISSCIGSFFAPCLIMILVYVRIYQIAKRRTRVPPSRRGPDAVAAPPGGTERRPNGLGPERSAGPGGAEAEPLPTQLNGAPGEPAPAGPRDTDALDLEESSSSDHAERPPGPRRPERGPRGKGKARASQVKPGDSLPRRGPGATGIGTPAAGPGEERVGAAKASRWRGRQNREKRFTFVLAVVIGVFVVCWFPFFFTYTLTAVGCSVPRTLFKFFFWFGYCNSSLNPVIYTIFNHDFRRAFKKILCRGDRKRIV
Put plainly: Inhibition of alpha2A adrenergic receptor at 10 uM.

For experiment [2], the target named is T2, Alpha-1A adrenergic receptor (Homo sapiens) (UniProt P35348).
T2 sequence (whole entry): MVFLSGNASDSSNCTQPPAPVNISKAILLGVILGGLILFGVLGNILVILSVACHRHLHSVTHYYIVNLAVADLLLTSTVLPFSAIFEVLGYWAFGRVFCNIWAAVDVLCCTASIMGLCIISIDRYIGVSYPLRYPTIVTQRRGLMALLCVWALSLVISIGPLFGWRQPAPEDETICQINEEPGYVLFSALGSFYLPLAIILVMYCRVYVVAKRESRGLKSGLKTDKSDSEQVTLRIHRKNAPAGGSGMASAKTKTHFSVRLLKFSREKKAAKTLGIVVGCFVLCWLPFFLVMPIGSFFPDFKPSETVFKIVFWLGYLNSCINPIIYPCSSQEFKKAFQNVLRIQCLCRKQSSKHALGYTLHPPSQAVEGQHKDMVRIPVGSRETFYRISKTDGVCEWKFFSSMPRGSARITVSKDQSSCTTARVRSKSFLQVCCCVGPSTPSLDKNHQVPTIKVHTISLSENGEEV
The experiment is described as follows: Inhibition of alpha1A adrenergic receptor at 10 uM.

Experiment [3] deals with 5-hydroxytryptamine receptor 5A (Homo sapiens) (UniProt P47898). The experiment is described as follows: Inhibition of 5-HT5A receptor at 10 uM.
The species entered for experiment [4] is Rattus norvegicus. Put plainly: Inhibition of BZP receptor in rat brain at 10 uM. In kind it is tissue-based.
Experiment [5] has as its target Sigma non-opioid intracellular receptor 1 (Rattus norvegicus, UniProt Q9R0C9). Put plainly: Displacement of [3H](+)-pentazocine from sigma1 receptor in rat brain homogenate. In kind it is tissue-based. In general terms: Displacement assays read how much labelled ligand stays bound in the presence of the test substance.
Experiment [6] addresses T3, 5-hydroxytryptamine receptor 3A (Homo sapiens) (UniProt P46098).
T3 sequence (whole entry): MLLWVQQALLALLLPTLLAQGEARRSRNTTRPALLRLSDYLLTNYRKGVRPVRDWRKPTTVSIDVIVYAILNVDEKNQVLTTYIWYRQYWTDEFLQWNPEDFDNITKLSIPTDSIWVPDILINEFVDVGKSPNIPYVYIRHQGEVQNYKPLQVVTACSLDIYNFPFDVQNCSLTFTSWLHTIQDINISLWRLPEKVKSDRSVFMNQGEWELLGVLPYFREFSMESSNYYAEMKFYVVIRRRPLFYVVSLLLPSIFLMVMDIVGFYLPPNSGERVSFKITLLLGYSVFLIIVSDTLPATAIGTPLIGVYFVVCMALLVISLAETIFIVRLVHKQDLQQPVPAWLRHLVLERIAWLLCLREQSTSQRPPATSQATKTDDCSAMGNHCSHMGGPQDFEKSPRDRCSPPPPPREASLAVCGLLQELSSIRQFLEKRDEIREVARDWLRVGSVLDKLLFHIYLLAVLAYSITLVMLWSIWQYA
Put plainly: Inhibition of 5-HT3 receptor at 10 uM.

The target in experiment [7] is T4, Alpha-1D adrenergic receptor (Homo sapiens) (UniProt P25100).
T4 sequence (whole entry): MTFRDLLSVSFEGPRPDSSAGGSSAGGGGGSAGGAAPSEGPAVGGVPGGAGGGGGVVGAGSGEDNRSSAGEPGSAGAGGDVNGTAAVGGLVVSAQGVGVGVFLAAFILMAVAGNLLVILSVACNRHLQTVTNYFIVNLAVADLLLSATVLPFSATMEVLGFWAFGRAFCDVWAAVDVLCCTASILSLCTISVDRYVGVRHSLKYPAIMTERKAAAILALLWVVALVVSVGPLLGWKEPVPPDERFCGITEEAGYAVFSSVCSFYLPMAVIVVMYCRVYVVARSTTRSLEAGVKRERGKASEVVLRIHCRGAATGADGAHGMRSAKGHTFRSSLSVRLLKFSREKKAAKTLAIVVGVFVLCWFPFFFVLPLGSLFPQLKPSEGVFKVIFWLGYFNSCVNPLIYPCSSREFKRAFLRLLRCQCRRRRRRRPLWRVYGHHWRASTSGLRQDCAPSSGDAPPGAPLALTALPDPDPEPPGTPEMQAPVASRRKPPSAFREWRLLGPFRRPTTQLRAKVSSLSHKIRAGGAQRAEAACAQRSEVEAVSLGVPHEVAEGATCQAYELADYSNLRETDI
The experiment is described as follows: Inhibition of alpha1D adrenergic receptor at 10 uM.

In experiment [8] the target is 5-hydroxytryptamine receptor 1B (Homo sapiens) (UniProt P28222). Put plainly: Inhibition of 5-HT1B receptor at 10 uM.
In experiment [9] the target is T5, Muscarinic acetylcholine receptor M5 (Homo sapiens, UniProt P08912).
T5 sequence (P08912 whole entry): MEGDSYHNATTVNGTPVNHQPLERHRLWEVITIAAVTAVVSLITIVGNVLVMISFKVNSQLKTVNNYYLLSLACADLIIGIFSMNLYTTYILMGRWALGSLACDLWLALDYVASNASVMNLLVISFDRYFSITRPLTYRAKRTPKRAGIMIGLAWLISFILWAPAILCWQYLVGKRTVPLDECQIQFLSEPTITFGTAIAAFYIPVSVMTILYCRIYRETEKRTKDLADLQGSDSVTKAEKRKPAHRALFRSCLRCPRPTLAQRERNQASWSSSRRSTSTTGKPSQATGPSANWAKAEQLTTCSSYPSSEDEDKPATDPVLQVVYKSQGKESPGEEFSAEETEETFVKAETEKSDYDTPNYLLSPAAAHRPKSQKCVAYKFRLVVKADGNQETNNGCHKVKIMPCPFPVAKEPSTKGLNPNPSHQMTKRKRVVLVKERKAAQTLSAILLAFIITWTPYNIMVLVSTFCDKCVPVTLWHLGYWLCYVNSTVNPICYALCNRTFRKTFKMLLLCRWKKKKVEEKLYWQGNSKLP
Put plainly: Inhibition of M5 muscarinic receptor.

5-hydroxytryptamine receptor 1B (Homo sapiens), sequence (P28222 whole entry): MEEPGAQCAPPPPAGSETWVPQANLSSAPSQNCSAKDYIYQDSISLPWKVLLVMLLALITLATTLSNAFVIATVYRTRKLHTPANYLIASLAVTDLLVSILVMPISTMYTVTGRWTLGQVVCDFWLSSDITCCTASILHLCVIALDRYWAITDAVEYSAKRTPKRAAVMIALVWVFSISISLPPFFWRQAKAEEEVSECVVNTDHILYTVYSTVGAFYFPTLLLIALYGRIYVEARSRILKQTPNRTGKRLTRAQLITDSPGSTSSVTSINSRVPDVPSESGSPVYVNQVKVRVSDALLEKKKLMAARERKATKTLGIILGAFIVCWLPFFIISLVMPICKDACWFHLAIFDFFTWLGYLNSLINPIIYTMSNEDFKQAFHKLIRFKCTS
Sigma non-opioid intracellular receptor 1, sequence (Q9R0C9 whole entry): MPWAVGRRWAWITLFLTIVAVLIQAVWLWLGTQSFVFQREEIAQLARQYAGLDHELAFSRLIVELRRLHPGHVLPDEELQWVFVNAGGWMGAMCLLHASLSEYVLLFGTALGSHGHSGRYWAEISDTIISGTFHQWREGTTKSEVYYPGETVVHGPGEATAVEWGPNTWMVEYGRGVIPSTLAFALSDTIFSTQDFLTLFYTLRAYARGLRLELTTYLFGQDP
5-hydroxytryptamine receptor 5A (Homo sapiens), sequence (P47898 whole entry): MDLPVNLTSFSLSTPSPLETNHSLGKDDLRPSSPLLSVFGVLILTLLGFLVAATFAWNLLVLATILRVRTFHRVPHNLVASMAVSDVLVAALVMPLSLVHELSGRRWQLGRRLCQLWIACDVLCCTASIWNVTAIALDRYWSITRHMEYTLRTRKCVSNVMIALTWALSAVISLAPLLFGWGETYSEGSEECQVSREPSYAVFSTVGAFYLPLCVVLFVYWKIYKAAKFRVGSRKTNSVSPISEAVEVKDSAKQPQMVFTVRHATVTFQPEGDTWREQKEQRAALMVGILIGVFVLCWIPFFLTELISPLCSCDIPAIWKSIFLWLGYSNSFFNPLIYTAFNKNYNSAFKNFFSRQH

A word on the inhibition: it is the percentage by which the read-out fell short of the control. Higher therefore signals a strong effect. As usually defined, the Ki is a measure of affinity in units of concentration, obtained from inhibition or displacement. Higher therefore signals a looser hold on the target. With `C1CCC(CN2CCCC2)CC1`, the inhibition in [1], in experiment [2], in experiment [3], in experiment [4], in experiment [6] and in experiment [7] was < 50% in each case. Further, the inhibition in experiment [8] is < 50%. The figures for the Ki in experiment [5] and in experiment [9] were 0.051 µM and 2.69 µM, respectively.
Regarding `C1CCC(CN2C3CCC2CC3)CC1`, the inhibition in experiment [1], in experiment [2], in experiment [3], in experiment [4], in experiment [6] and in experiment [7] was < 50% in each case. Also, the inhibition in [8] is < 50%. For the same compound, the results for the Ki in [5] and in experiment [9] were 0.022 µM and 2.67 µM, respectively.
For `C1CC2CCC1N2CC12C3C4C5C3C1C5C42` (configuration not stated), the inhibition in experiment [1], in [2], in experiment [3], in experiment [4], in experiment [6] and in experiment [7] was < 50% throughout. Moreover, the inhibition in experiment [8] is < 50%. The Ki in experiment [5] was 0.007 µM; in experiment [9], 0.802 µM.
